In paper PMC5218480 (PLoS ONE, 2017):

System: MV-4-11 cells
Assay: Gene expression microarray analysis (Affymetrix PrimeView) and GSEA
Assay type: cell-based, human
Set-up: RFU PODN (11730768_x_at) / Fold change /veh PODN (11730768_x_at) / RFU LINC00158 (11744669_a_at) / Fold change /veh LINC00158 (11744669_a_at) / RFU DUSP10 (11751237_a_at) / Fold change /veh DUSP10 (11751237_a_at) / RFU ID3 (11757404_x_at) / Fold change /veh ID3 (11757404_x_at) / RFU PLEKHG5 (11737974_s_at) / Fold change /veh PLEKHG5 (11737974_s_at) / RFU LRRC4B (11730491_at) / Fold change /veh LRRC4B (11730491_at) / RFU GIMAP4 (11747438_a_at) / Fold change /veh GIMAP4 (11747438_a_at) / RFU KRT8 (11758183_x_at) / Fold change /veh KRT8 (11758183_x_at) / RFU CNN1 (11734310_a_at) / Fold change /veh CNN1 (11734310_a_at) / RFU VPS37D (11726825_at) / Fold change /veh VPS37D (11726825_at) / RFU C10orf10 (11716522_x_at) / Fold change /veh C10orf10 (11716522_x_at) / RFU KIR2DL2 /// KIR2DL4 /// KIR2DL5A /// KIR2DL5B /// KIR2DS1 /// KIR2DS2 /// KIR2DS3 /// KIR2DS4 /// KIR3DL3 /// KIR3DL3 /// KIR3DS1 (11738374_at) / Fold change /veh KIR2DL2 /// KIR2DL4 /// KIR2DL5A /// KIR2DL5B /// KIR2DS1 /// KIR2DS2 /// KIR2DS3 /// KIR2DS4 /// KIR3DL3 /// KIR3DL3 /// KIR3DS1 (11738374_at) / RFU C1QL1 (11718748_at) / Fold change /veh C1QL1 (11718748_at) / RFU TMPRSS4 (11747572_a_at) / Fold change /veh TMPRSS4 (11747572_a_at) / RFU HAMP (11756126_x_at) / Fold change /veh HAMP (11756126_x_at) / RFU RNFT2 (11725882_a_at) / Fold change /veh RNFT2 (11725882_a_at) / RFU NR4A2 (11747474_a_at) / Fold change /veh NR4A2 (11747474_a_at) / RFU ABCC12 (11746883_a_at) / Fold change /veh ABCC12 (11746883_a_at) / RFU TMEM136 (11760407_x_at) / Fold change /veh TMEM136 (11760407_x_at) / RFU CLDN22 /// WWC2 (11732394_at) / Fold change /veh CLDN22 /// WWC2 (11732394_at) / RFU HLA-DPB1 (11760878_x_at) / Fold change /veh HLA-DPB1 (11760878_x_at) / RFU SPINT1 (11716480_a_at) / Fold change /veh SPINT1 (11716480_a_at) / RFU GAP43 (11754022_s_at) / Fold change /veh GAP43 (11754022_s_at) / RFU A4GNT (11735810_at) / Fold change /veh A4GNT (11735810_at) / RFU PRB3 (11715151_x_at) / Fold change /veh PRB3 (11715151_x_at) / RFU TUBB4B (11761932_at) / Fold change /veh TUBB4B (11761932_at) / RFU CAPN14 (11732068_a_at) / Fold change /veh CAPN14 (11732068_a_at) / RFU TMCC2 (11721928_a_at) / Fold change /veh TMCC2 (11721928_a_at) / RFU IRGQ (11745062_a_at) / Fold change /veh IRGQ (11745062_a_at) / RFU FAM174B (11720279_a_at) / Fold change /veh FAM174B (11720279_a_at) / RFU TMPRSS4 (11748680_a_at) / Fold change /veh TMPRSS4 (11748680_a_at) / RFU FAM212B (11763350_a_at) / Fold change /veh FAM212B (11763350_a_at) / RFU PLEKHG5 (11743358_a_at) / Fold change /veh PLEKHG5 (11743358_a_at) / RFU ZSCAN30 (11745921_a_at) / Fold change /veh ZSCAN30 (11745921_a_at) / RFU CMKLR1 (11741424_a_at) / Fold change /veh CMKLR1 (11741424_a_at) / RFU LOC101060620 /// MAPK8IP1 (11723275_at) / Fold change /veh LOC101060620 /// MAPK8IP1 (11723275_at) / RFU SPTSSB (11747773_x_at) / Fold change /veh SPTSSB (11747773_x_at) / RFU PRSS12 (11739890_at) / Fold change /veh PRSS12 (11739890_at) / RFU BIN1 (11741810_x_at) / Fold change /veh BIN1 (11741810_x_at) / RFU WNT11 (11732464_a_at) / Fold change /veh WNT11 (11732464_a_at) / RFU C10orf10 (11716521_a_at) / Fold change /veh C10orf10 (11716521_a_at) / RFU C5orf56 (11738089_at) / Fold change /veh C5orf56 (11738089_at) / RFU CYB561 (11721691_x_at) / Fold change /veh CYB561 (11721691_x_at) / RFU ANKRD19P (11752326_a_at) / Fold change /veh ANKRD19P (11752326_a_at) / RFU OR2T12 /// OR2T33 /// OR2T8 (11738714_s_at) / Fold change /veh OR2T12 /// OR2T33 /// OR2T8 (11738714_s_at) / RFU VCAN (11748164_a_at) / Fold change /veh VCAN (11748164_a_at) / RFU JSRP1 (11732532_at) / Fold change /veh JSRP1 (11732532_at) / RFU KRTAP10-11 (11738290_x_at) / Fold change /veh KRTAP10-11 (11738290_x_at) / RFU MYO3A (11730013_a_at) / Fold change /veh MYO3A (11730013_a_at) / RFU EBF3 (11725865_a_at) / Fold change /veh EBF3 (11725865_a_at) / RFU CAMK2N1 (11719241_x_at) / Fold change /veh CAMK2N1 (11719241_x_at) / RFU C5orf56 (11738088_a_at) / Fold change /veh C5orf56 (11738088_a_at) / RFU OLFML3 (11715873_a_at) / Fold change /veh OLFML3 (11715873_a_at) / RFU LOC100653217 /// NTM (11731650_a_at) / Fold change /veh LOC100653217 /// NTM (11731650_a_at) / RFU MAPK11 (11762145_a_at) / Fold change /veh MAPK11 (11762145_a_at) / RFU FIZ1 (11724087_x_at) / Fold change /veh FIZ1 (11724087_x_at) / RFU OASL (11726364_x_at) / Fold change /veh OASL (11726364_x_at) / RFU SOX15 (11748057_x_at) / Fold change /veh SOX15 (11748057_x_at) / RFU CD79A (11719716_a_at) / Fold change /veh CD79A (11719716_a_at) / RFU HIST1H1D (11736915_at) / Fold change /veh HIST1H1D (11736915_at) / RFU CASKIN2 (11723855_a_at) / Fold change /veh CASKIN2 (11723855_a_at) / RFU LOC730098 (11760151_x_at) / Fold change /veh LOC730098 (11760151_x_at) / RFU OR4N2 (11742367_at) / Fold change /veh OR4N2 (11742367_at) / RFU PRRT2 (11749266_a_at) / Fold change /veh PRRT2 (11749266_a_at) / RFU SNX32 (11753110_a_at) / Fold change /veh SNX32 (11753110_a_at) / RFU CDHR5 (11726645_a_at) / Fold change /veh CDHR5 (11726645_a_at) / RFU RCAN1 (11760418_a_at) / Fold change /veh RCAN1 (11760418_a_at) / RFU FAM167A (11723789_a_at) / Fold change /veh FAM167A (11723789_a_at) / RFU FAM26E (11764081_at) / Fold change /veh FAM26E (11764081_at) / RFU ISYNA1 (11749810_s_at) / Fold change /veh ISYNA1 (11749810_s_at) / RFU ACY1 (11761880_at) / Fold change /veh ACY1 (11761880_at) / RFU 11764098_at / Fold change /veh 11764098_at / RFU SAMD14 (11745864_x_at) / Fold change /veh SAMD14 (11745864_x_at) / RFU NPB (11741838_a_at) / Fold change /veh NPB (11741838_a_at) / RFU TMPRSS6 (11731388_a_at) / Fold change /veh TMPRSS6 (11731388_a_at) / RFU KRTAP10-2 (11738614_at) / Fold change /veh KRTAP10-2 (11738614_at) / RFU ARHGAP8 /// PRR5-ARHGAP8 (11727945_x_at) / Fold change /veh ARHGAP8 /// PRR5-ARHGAP8 (11727945_x_at) / RFU KRTAP5-7 /// NADSYN1 (11734609_at) / Fold change /veh KRTAP5-7 /// NADSYN1 (11734609_at) / RFU RASL12 (11751679_a_at) / Fold change /veh RASL12 (11751679_a_at) / RFU CDKN2B (11736163_a_at) / Fold change /veh CDKN2B (11736163_a_at) / RFU PRF1 (11729649_at) / Fold change /veh PRF1 (11729649_at) / RFU, ZNF638 /// ZNF638-IT1 / Fold change vs veh, ZNF638 /// ZNF638-IT1 / RFU, PANK3 / Fold change vs veh, PANK3 / RFU, SH3YL1 / Fold change vs veh, SH3YL1 / RFU, ZEB2 / Fold change vs veh, ZEB2 / RFU, NRIP1 / Fold change vs veh, NRIP1 / RFU, PTTG1IP / Fold change vs veh, PTTG1IP / RFU, CAPN2 / Fold change vs veh, CAPN2 / RFU, MED14 / Fold change vs veh, MED14 / RFU, SNORA58 / Fold change vs veh, SNORA58 / RFU, C1orf63 / Fold change vs veh, C1orf63 / RFU, LRRFIP1 / Fold change vs veh, LRRFIP1 / RFU, NDUFAF7 / Fold change vs veh, NDUFAF7 / RFU, SLC12A2 / Fold change vs veh, SLC12A2 / RFU, IBTK / Fold change vs veh, IBTK / RFU, ESF1 / Fold change vs veh, ESF1 / Fold change vs veh, TMEM50B / RFU, TAOK1 / Fold change vs veh, TAOK1 / RFU, ACBD3 / Fold change vs veh, ACBD3 / RFU, TMA16 / Fold change vs veh, TMA16 / RFU, RWDD3 / Fold change vs veh, RWDD3 / RFU, BCAT1 / Fold change vs veh, BCAT1 / RFU, EDEM3 / Fold change vs veh, EDEM3 / RFU, TMEM33 / Fold change vs veh, TMEM33 / RFU, WDR75 / Fold change vs veh, WDR75 / RFU, AHCTF1 / Fold change vs veh, AHCTF1 / RFU, TFRC / Fold change vs veh, TFRC / RFU, ZDHHC17 / Fold change vs veh, ZDHHC17 / RFU, NOM1 / Fold change vs veh, NOM1 / RFU, ARL8B / Fold change vs veh, ARL8B / RFU, ZBTB11 / Fold change vs veh, ZBTB11 / RFU, TAMM41 / Fold change vs veh, TAMM41 / RFU, KIAA1704 /// LOC100996395 / Fold change vs veh, KIAA1704 /// LOC100996395 / RFU, ING1 / Fold change vs veh, ING1 / RFU, TRMT61B / Fold change vs veh, TRMT61B / RFU, FUBP3 / Fold change vs veh, FUBP3 / RFU, TP53 / Fold change vs veh, TP53 / RFU, TNKS2 / Fold change vs veh, TNKS2 / RFU, ZFP14 / Fold change vs veh, ZFP14 / RFU, ACTR2 / Fold change vs veh, ACTR2 / RFU, PPP3R1 / Fold change vs veh, PPP3R1 / RFU, PIK3R1 / Fold change vs veh, PIK3R1 / RFU, HNRNPA1 / Fold change vs veh, HNRNPA1 / RFU, RNF170 / Fold change vs veh, RNF170 / RFU, ZNF28 / Fold change vs veh, ZNF28 / RFU, RNGTT / Fold change vs veh, RNGTT / RFU, OGT / Fold change vs veh, OGT / RFU, BRD1 / Fold change vs veh, BRD1 / RFU, MARS / Fold change vs veh, MARS / RFU, ZNF655 / Fold change vs veh, ZNF655 / RFU, FAHD1 / Fold change vs veh, FAHD1 / RFU, BDP1 / Fold change vs veh, BDP1 / RFU, LRRCC1 / Fold change vs veh, LRRCC1 / RFU, ARID1A / Fold change vs veh, ARID1A / RFU, ZNF146 / Fold change vs veh, ZNF146 / RFU, ZNF330 / Fold change vs veh, ZNF330 / RFU, GPN3 / Fold change vs veh, GPN3 / RFU, C9orf123 / Fold change vs veh, C9orf123 / RFU, N4BP2L2 / Fold change vs veh, N4BP2L2 / RFU, ARFIP1 / Fold change vs veh, ARFIP1 / RFU, FAM179B / Fold change vs veh, FAM179B / RFU, BCL10 / Fold change vs veh, BCL10 / RFU, UHRF1BP1L / Fold change vs veh, UHRF1BP1L / RFU, BET1 / Fold change vs veh, BET1 / RFU, CNOT2 / Fold change vs veh, CNOT2 / RFU, ZNF268 / Fold change vs veh, ZNF268 / Fold change vs veh, ZNF507 / RFU, DGCR2 / Fold change vs veh, DGCR2 / RFU, WDSUB1 / Fold change vs veh, WDSUB1 / Fold change vs veh, HSP90B1 /// MIR3652 / RFU, ADSS / Fold change vs veh, ADSS / RFU, GK / Fold change vs veh, GK / RFU, ZNF148 / Fold change vs veh, ZNF148 / RFU, TAF9 / Fold change vs veh, TAF9 / RFU, SLC1A5 / Fold change vs veh, SLC1A5 / RFU, SLMO2 / Fold change vs veh, SLMO2 / RFU, ABCC4 / Fold change vs veh, ABCC4 / RFU, LOC101060439 /// RAP1B / Fold change vs veh, LOC101060439 /// RAP1B / RFU, RFX7 / Fold change vs veh, RFX7 / RFU, GTPBP10 / Fold change vs veh, GTPBP10 / RFU, CNEP1R1 / Fold change vs veh, CNEP1R1 / RFU, BIVM-ERCC5 /// ERCC5 / Fold change vs veh, BIVM-ERCC5 /// ERCC5 / RFU, ILF3 / Fold change vs veh, ILF3 / RFU 11762660_at / Fold change /veh 11762660_at / RFU VCAN (11757783_s_at) / Fold change /veh VCAN (11757783_s_at) / RFU DDX43 (11728927_at) / Fold change /veh DDX43 (11728927_at) / RFU KRT8 (11758188_x_at) / Fold change /veh KRT8 (11758188_x_at) / RFU NKD1 (11759106_at) / Fold change /veh NKD1 (11759106_at) / RFU SRD5A1 (11742802_a_at) / Fold change /veh SRD5A1 (11742802_a_at) / RFU TPSAB1 /// TPSB2 (11721975_s_at) / Fold change /veh TPSAB1 /// TPSB2 (11721975_s_at) / RFU GSTM3 (11746129_a_at) / Fold change /veh GSTM3 (11746129_a_at) / RFU IL23R (11737362_x_at) / Fold change /veh IL23R (11737362_x_at) / RFU TMEM51 (11727254_a_at) / Fold change /veh TMEM51 (11727254_a_at) / RFU PIWIL2 (11732686_x_at) / Fold change /veh PIWIL2 (11732686_x_at) / RFU ORM1 (11744905_x_at) / Fold change /veh ORM1 (11744905_x_at) / RFU CCDC152 (11743942_at) / Fold change /veh CCDC152 (11743942_at) / RFU ECM1 (11717891_a_at) / Fold change /veh ECM1 (11717891_a_at) / RFU IL23R (11748794_a_at) / Fold change /veh IL23R (11748794_a_at) / RFU TNFAIP8L3 (11732012_x_at) / Fold change /veh TNFAIP8L3 (11732012_x_at) / RFU MBOAT4 (11741988_at) / Fold change /veh MBOAT4 (11741988_at) / RFU 11764193_at / Fold change /veh 11764193_at / RFU TMEM53 (11763286_at) / Fold change /veh TMEM53 (11763286_at) / RFU MAGEB2 (11727129_at) / Fold change /veh MAGEB2 (11727129_at) / RFU TMEM200A (11744735_a_at) / Fold change /veh TMEM200A (11744735_a_at) / RFU CCDC152 (11751479_a_at) / Fold change /veh CCDC152 (11751479_a_at) / RFU FAM211A (11726209_a_at) / Fold change /veh FAM211A (11726209_a_at) / RFU RGS16 (11746705_a_at) / Fold change /veh RGS16 (11746705_a_at) / RFU VCAN (11755009_s_at) / Fold change /veh VCAN (11755009_s_at) / RFU RHOB (11743442_s_at) / Fold change /veh RHOB (11743442_s_at) / RFU RGS16 (11720943_a_at) / Fold change /veh RGS16 (11720943_a_at) / RFU RGS16 (11720944_at) / Fold change /veh RGS16 (11720944_at) / RFU, VPS4B / Fold change vs veh, VPS4B / RFU, CREB1 / Fold change vs veh, CREB1 / RFU, DNAJC13 / Fold change vs veh, DNAJC13 / RFU, GNAQ / Fold change vs veh, GNAQ / RFU, CDK5R1 / Fold change vs veh, CDK5R1 / RFU, ZRANB3 / Fold change vs veh, ZRANB3 / RFU, CUL4A / Fold change vs veh, CUL4A / RFU, CCNY / Fold change vs veh, CCNY / RFU, UFL1 / Fold change vs veh, UFL1 / RFU, COG3 / Fold change vs veh, COG3 / RFU, DIAPH2 / Fold change vs veh, DIAPH2 / RFU, SKA2 / Fold change vs veh, SKA2 / RFU, AFF3 / Fold change vs veh, AFF3 / RFU, LMF1 / Fold change vs veh, LMF1 / RFU, IPO11 / Fold change vs veh, IPO11 / RFU, DFFB / Fold change vs veh, DFFB / RFU, FOXP1 / Fold change vs veh, FOXP1 / RFU, CARD8 / Fold change vs veh, CARD8 / RFU, STRN3 / Fold change vs veh, STRN3 / RFU, ADK / Fold change vs veh, ADK / RFU, RASSF2 / Fold change vs veh, RASSF2 / RFU, WIPF1 / Fold change vs veh, WIPF1 / RFU, LARP1B / Fold change vs veh, LARP1B / RFU, RASA1 / Fold change vs veh, RASA1 / RFU, RB1 / Fold change vs veh, RB1 / RFU, PPFIA1 / Fold change vs veh, PPFIA1 / RFU, MAT2A / Fold change vs veh, MAT2A / RFU, CCT5 / Fold change vs veh, CCT5 / RFU, WDR92 / Fold change vs veh, WDR92 / RFU, CUX1 / Fold change vs veh, CUX1 / RFU, TTC7A / Fold change vs veh, TTC7A / RFU, TMEM135 / Fold change vs veh, TMEM135 / RFU, DEPTOR / Fold change vs veh, DEPTOR / RFU, CPM / Fold change vs veh, CPM / RFU, DNAJB6 / Fold change vs veh, DNAJB6 / RFU, CACNA2D3 / Fold change vs veh, CACNA2D3 / RFU, DTX4 / Fold change vs veh, DTX4 / RFU, TFCP2 / Fold change vs veh, TFCP2 / RFU, GMCL1 /// GMCL1P1 / Fold change vs veh, GMCL1 /// GMCL1P1 / RFU, AEBP2 / Fold change vs veh, AEBP2 / RFU, SNHG1 /// SNORD22 /// SNORD25 /// SNORD26 /// SNORD27 /// SNORD28 /// SNORD29 /// SNORD31 / Fold change vs veh, SNHG1 /// SNORD22 /// SNORD25 /// SNORD26 /// SNORD27 /// SNORD28 /// SNORD29 /// SNORD31 / Fold change (Aza/veh), C12orf56 (ProbeSet 11735607_a_at) / Fold change (ACY-1035/veh), C12orf56 (ProbeSet 11735607_a_at) / Fold change (Aza/veh), FGFR1OP (ProbeSet 11751329_s_at) / Fold change (ACY-1035/veh), FGFR1OP (ProbeSet 11751329_s_at) / Fold change (Aza/veh), VPS36 (ProbeSet 11739960_a_at) / Fold change (ACY-1035/veh), VPS36 (ProbeSet 11739960_a_at) / RFU SYPL1 (11715823_x_at) / Fold change /veh SYPL1 (11715823_x_at) / RFU IGFBP7 (11715501_s_at) / Fold change /veh IGFBP7 (11715501_s_at) / RFU REEP3 (11722064_at) / Fold change /veh REEP3 (11722064_at) / RFU IGLL1 (11728026_x_at) / Fold change /veh IGLL1 (11728026_x_at): dose or concentration left out as unconfirmed
Conditions: ProbeSet 11727827_x_at; LIST B

Which “Fold change vs veh, NDUFAF7” value does the source give for Nc1ccc(-c2cccs2)cc1NC(=O)c1ccc2c(c1)cc(C1CC1)n2CCN1CCOCC1 [ACY-1035] here?
Its value is 1.01.
